Laboratory results from ChEMBL document CHEMBL3808377, “Core Replacements in a Potent Series of VEGFR-2 Inhibitors and Their Impact on Potency, Solubility, and hERG” (ACS Med Chem Lett, 2016).
≈ marks a conversion by molar mass, not a printed value.

Columns and labels:
[1] = target: Voltage-gated inwardly rectifying potassium channel KCNH2 (Homo sapiens, UniProt Q12809); assay: Binding affinity to human ERG by radioligand binding assay
[2] = Aqueous solubility of the compound at pH 6.8; type: physicochemical

Voltage-gated inwardly rectifying potassium channel KCNH2, sequence (Q12809 whole entry): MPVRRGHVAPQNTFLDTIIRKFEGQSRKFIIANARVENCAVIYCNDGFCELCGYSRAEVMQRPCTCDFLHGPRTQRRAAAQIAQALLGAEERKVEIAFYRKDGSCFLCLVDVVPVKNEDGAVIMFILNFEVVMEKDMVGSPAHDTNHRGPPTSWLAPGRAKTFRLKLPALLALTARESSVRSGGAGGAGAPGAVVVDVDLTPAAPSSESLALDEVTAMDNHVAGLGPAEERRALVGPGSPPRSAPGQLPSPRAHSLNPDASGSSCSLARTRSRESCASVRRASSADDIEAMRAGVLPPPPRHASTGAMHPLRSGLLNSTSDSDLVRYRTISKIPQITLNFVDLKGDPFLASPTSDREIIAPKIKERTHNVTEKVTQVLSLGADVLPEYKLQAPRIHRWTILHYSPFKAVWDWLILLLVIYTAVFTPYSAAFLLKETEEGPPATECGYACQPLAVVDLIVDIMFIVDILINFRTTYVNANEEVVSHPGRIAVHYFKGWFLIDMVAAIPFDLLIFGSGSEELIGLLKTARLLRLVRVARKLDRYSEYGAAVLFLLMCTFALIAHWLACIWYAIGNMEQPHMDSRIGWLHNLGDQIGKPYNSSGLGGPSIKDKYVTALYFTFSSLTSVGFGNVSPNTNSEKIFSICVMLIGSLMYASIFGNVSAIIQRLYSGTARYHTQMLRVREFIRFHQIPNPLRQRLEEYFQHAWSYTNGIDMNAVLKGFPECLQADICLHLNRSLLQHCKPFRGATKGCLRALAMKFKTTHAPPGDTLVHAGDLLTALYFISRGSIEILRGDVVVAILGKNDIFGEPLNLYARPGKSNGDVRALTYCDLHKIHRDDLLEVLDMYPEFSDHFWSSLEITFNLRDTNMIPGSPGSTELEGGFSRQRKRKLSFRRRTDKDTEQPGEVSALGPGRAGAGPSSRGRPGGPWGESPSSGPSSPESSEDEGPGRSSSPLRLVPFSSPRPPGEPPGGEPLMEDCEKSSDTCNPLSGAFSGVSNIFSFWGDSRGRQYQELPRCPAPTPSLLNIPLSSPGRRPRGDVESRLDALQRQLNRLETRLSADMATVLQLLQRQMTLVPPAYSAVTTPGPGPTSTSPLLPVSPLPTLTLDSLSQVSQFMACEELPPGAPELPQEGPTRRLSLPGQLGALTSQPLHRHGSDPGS

solubility [2] [µM]	Structure (SMILES)	IC50 [1] [µM]
456 (≈ 191 µg/mL)	CC(C)(C)c1cc(NC(=O)c2cnc3cc(Oc4ncnc5c4CNC5)ccn23)no1	9.2
280 (≈ 116 µg/mL)	CC1(c2cc(NC(=O)c3ccn4cc(Oc5ncnc6c5CNC6)ccc34)n[nH]2)CC1	–
3 (≈ 1.5 µg/mL)	C[C@H]1Cc2c(ncnc2Oc2ccc3ccn(C(=O)Nc4cc(C5(C(F)(F)F)CC5)on4)c3c2)CN1	8.6
25 (≈ 10.5 µg/mL)	CC(C)(C)c1cc(NC(=O)n2ccc3cc(Oc4ncnc5c4CNC5)cnc32)no1	5.7
81 (≈ 33.9 µg/mL)	CC(C)(C)c1cc(NC(=O)n2ccc3ccc(Oc4ncnc5c4CNC5)cc32)no1	21
9 (≈ 3.78 µg/mL)	CC(C)(C)c1cc(NC(=O)n2ncc3cc(Oc4ncnc5c4CNC5)ccc32)no1	7.7
240 (≈ 101 µg/mL)	CC(C)(C)c1cc(NC(=O)n2ccc3ncc(Oc4ncnc5c4CNC5)cc32)no1	> 30
260 (≈ 109 µg/mL)	CC(C)(C)c1cc(NC(=O)n2ccc3nc(Oc4ncnc5c4CNC5)ccc32)no1	26
34 (≈ 16.9 µg/mL)	C[C@H]1Cc2c(ncnc2Oc2ccc3c(ccn3C(=O)Nc3cc(C4(C(F)(F)F)CC4)on3)c2)CN1	7.4
